# From paper PMC6522510 (Nature Communications, 2019)
# What was measured:
# Design in all cases: species or system AML cell lines (8); Primary HTS, single concentration about 10 uM, Cell Titer Glo viability; log10 luminescence, per cent inhibition relative to cycloheximide control
# Conditions in all cases: 72 h, relative to cycloheximide control, log10 luminescence; inhibitor
# CHRF288-11 = test system: CHRF288-11
# CMK = test system: CMK
# CMS = test system: CMS
# M07e = test system: M07e
# ML-2 = test system: ML-2
# MOLM-13 = test system: MOLM-13
# MV4-11 = test system: MV4-11
# U937 = test system: U937
smiles,measurement,setting,value
"Fc1ccc(-c2ncn(C3CCNCC3)c2-c2ccnc(Oc3ccc(Oc4ccccc4)cc3)n2)cc1 [SJ000573126-1, JB27026-104B1]",CHRF288-11 %inh,CHRF288-11,38.59%
same,CMK %inh,CMK,18.72%
same,CMS %inh,CMS,2.898%
same,M07e %inh,M07e,10.64%
same,ML-2 %inh,ML-2,34.19%
same,MOLM-13 %inh,MOLM-13,28.44%
same,MV4-11 %inh,MV4-11,29.08%
same,U937 %inh,U937,16.46%
"COc1ccc(-c2ccncc2)cc1C(N)=O [SJ000573127-1, R12444/16/1]",CHRF288-11 %inh,CHRF288-11,-1.562%
same,CMK %inh,CMK,5.063%
same,CMS %inh,CMS,5.051%
same,M07e %inh,M07e,1.948%
same,ML-2 %inh,ML-2,2.021%
same,MOLM-13 %inh,MOLM-13,4.454%
same,MV4-11 %inh,MV4-11,-1.177%
same,U937 %inh,U937,2.206%
"CNC(=O)c1cc(-c2ccc(F)cc2)cc(-c2ccc(S(=O)(=O)N3CCCC3)cc2)c1N [SJ000573128-1, R11976/170/3]",CHRF288-11 %inh,CHRF288-11,14.81%
same,CMK %inh,CMK,31.99%
same,CMS %inh,CMS,9.624%
same,M07e %inh,M07e,5.294%
same,ML-2 %inh,ML-2,6.119%
same,MOLM-13 %inh,MOLM-13,10.13%
same,MV4-11 %inh,MV4-11,2.522%
same,U937 %inh,U937,15.8%
"COc1ccc2cc(-c3c(-c4ccncc4)nc(-c4ccc([S+](C)[O-])cc4)n3C)ccc2c1 (centres unmarked) [SJ000573130-1, NJ44241-161A1]",CHRF288-11 %inh,CHRF288-11,0.3346%
same,CMK %inh,CMK,-2.307%
same,CMS %inh,CMS,-2.967%
same,M07e %inh,M07e,-4.153%
same,ML-2 %inh,ML-2,-0.4869%
same,MOLM-13 %inh,MOLM-13,-0.6311%
same,MV4-11 %inh,MV4-11,-3.083%
same,U937 %inh,U937,-2.991%
"Fc1ccc(-c2nc3n(c2-c2ccncc2)CCS3)cc1 [SJ000573131-1, RJA-12113-255 | U519/32/1 | SKF 86002]",CHRF288-11 %inh,CHRF288-11,-0.4036%
same,CMK %inh,CMK,1.491%
same,CMS %inh,CMS,-0.311%
same,M07e %inh,M07e,0.008042%
same,ML-2 %inh,ML-2,0.01337%
same,MOLM-13 %inh,MOLM-13,-3.313%
same,MV4-11 %inh,MV4-11,-2.292%
same,U937 %inh,U937,-2.013%
"c1cnn2ncc(-c3ccnc(NCCCN4CCOCC4)n3)c2c1 [SJ000573132-1, U14929/199/1]",CHRF288-11 %inh,CHRF288-11,17.57%
same,CMK %inh,CMK,3.496%
same,CMS %inh,CMS,12.25%
same,M07e %inh,M07e,4.031%
same,ML-2 %inh,ML-2,4.815%
same,MOLM-13 %inh,MOLM-13,36.05%
same,MV4-11 %inh,MV4-11,15.28%
same,U937 %inh,U937,21.78%
"CCS(=O)(=O)c1ccc(OC)c(Nc2ncc(-c3cccc(-c4ccccc4F)c3)o2)c1 [SJ000573133-1, U16399/42/1]",CHRF288-11 %inh,CHRF288-11,3.996%
same,CMK %inh,CMK,-2.911%
same,CMS %inh,CMS,-1.131%
same,M07e %inh,M07e,-0.6473%
same,ML-2 %inh,ML-2,1.693%
same,MOLM-13 %inh,MOLM-13,73.99%
same,MV4-11 %inh,MV4-11,49.91%
same,U937 %inh,U937,-2.484%
"Cc1ccc(Nc2ccnc(Nc3cccc(C(N)=O)c3)n2)cc1O [SJ000573134-1, R4218/174/1]",CHRF288-11 %inh,CHRF288-11,5.659%
same,CMK %inh,CMK,14.84%
same,CMS %inh,CMS,-1.873%
same,M07e %inh,M07e,3.53%
same,ML-2 %inh,ML-2,3.588%
same,MOLM-13 %inh,MOLM-13,95.23%
same,MV4-11 %inh,MV4-11,65.12%
same,U937 %inh,U937,-1.642%
"CNC(=O)c1cccc(C#Cc2cncnc2Nc2ccc(OCc3cccc(F)c3)c(Cl)c2)c1 [SJ000573135-1, U17545/42/1]",CHRF288-11 %inh,CHRF288-11,-0.4909%
same,CMK %inh,CMK,2.154%
same,CMS %inh,CMS,2.176%
same,M07e %inh,M07e,2.556%
same,ML-2 %inh,ML-2,1.577%
same,MOLM-13 %inh,MOLM-13,2.058%
same,MV4-11 %inh,MV4-11,0.5885%
same,U937 %inh,U937,0.8403%
"Cc1nc(-c2ccccc2)n2nc(NCCCN3CCOCC3)ncc12 [SJ000573136-1, U19891/100/1]",CHRF288-11 %inh,CHRF288-11,6.275%
same,CMK %inh,CMK,23.01%
same,CMS %inh,CMS,0.3241%
same,M07e %inh,M07e,-0.8598%
same,ML-2 %inh,ML-2,5.663%
same,MOLM-13 %inh,MOLM-13,7.46%
same,MV4-11 %inh,MV4-11,3.076%
same,U937 %inh,U937,1.344%
